Results on 18 compounds are retold here after patent US20090036444A1, “5-5-Membered fused heterocyclic compound and use thereof as HCV polymerase inhibitor” (priority 2003, published 2009).

Where a name gives a salt, the structure may show the parent alone. Read-outs that look alike come from different tables or passages of the source.

Assay [1] has as its target T1, HCV polymerase H544 1a 3X (UniProt P27958).
T1 construct: fused on or other part: 6 His tag at the C-terminus, for the BK (1b) enzyme
The assay is described as follows: Assay of enzyme (HCV polymerase) inhibitory activity, H544 1a 3X. The assay is classed as biochemical.

The target of assay [2] is T2, HCV polymerase H544 1b 3X (Hepatitis C virus genotype 1b, UniProt P26663).
T2 construct: a region encoding NS5B (J Virol 1991 March, 65(3), 1105-13, 544 amino acids after deletion of 47 amino acids on the C-terminal); 6 His (C); made in house; host or cells: Escherichia coli
The assay is described as follows: Assay of enzyme (HCV polymerase) inhibitory activity, H544 1b 3X. The assay is classed as biochemical, HCV BK strain. From the text: The evaluation of the HCV polymerase inhibitory activity of the compound of the present invention is explained in the following. This polymerase is an enzyme coded for by the non-structural protein region called NS5B on the genome RNA of HCV (EMBO J., 15:12-22, 1996).
Using, as a template, a cDNA clone corresponding to the full length genome RNA of HCV BK strain obtained from the blood of a patient with hepatitis C, a region encoding NS5B (J Virol 1991 March, 65(3), 1105-13, 544 amino acids after deletion of 47 amino acids on the C-terminal) was amplified by PCR. The objective gene was prepared by adding a 6 His tag {base pair encoding 6 continuous histidine (His)} to the 3′ end thereof and transformed to Escherichia coli. The Escherichia coli capable of producing the objective protein was cultured. The obtained cells were suspended in a buffer solution and crushed in a microfluidizer. The supernatant was obtained by centrifugation and applied to various column chromatographys {mono-S, Sephacryl S-200 (Pharmacia)}, inclusive of metal chelate chromatography, to give a standard enzyme product.
Using a synthetic primer designed based on the sequence of HCV genomic 3′ untranslated region, a DNA fragment (148 bp) containing polyU and 3′X sequence was entirely synthesized and cloned into plasmid pBluescript SK II (+) (Stratagene). The cDNA encoding full length NS5B, which was prepared in i) above, was digested with restriction enzyme KpnI to give a cDNA fragment containing the nucleotide sequence of from the restriction enzyme cleavage site to the termination codon. This cDNA fragment was inserted into the upstream of 3′ untranslated region of the DNA in pBluescript SK II(+) and ligated. The about 450 bp inserted DNA sequence was used as a template in the preparation of substrate RNA. This plasmid was cleaved immediately after the 3′X sequence, linearized and purified by phenol-chloroform treatment and ethanol precipitation to give DNA.
RNA was synthesized (37° C., 3 hr) by run-off method using this purified DNA as a template, a promoter of pBluescript SK II(+), MEGAscript RNA synthesis kit (Ambion) and T7 RNA polymerase. DNase I was added and the mixture was incubated for 1 hr. The template DNA was removed by decomposition to give a crude RNA product. This crude product was treated with phenol-chloroform and purified by ethanol precipitation to give the objective substrate RNA.
This RNA was applied to formaldehyde denaturation agarose gel electrophoresis to confirm the quality thereof and preserved at −80° C.
A test substance (compound of the present invention) and a reaction mixture (30 μl) having the following composition were reacted at 25° C. for 90 min. 10% Trichloroacetic acid at 4° C. and 1% sodium pyrophosphate solution (150 μl) were added to this reaction mixture to stop the reaction. The reaction mixture was left standing in ice for 15 min to insolubilize RNA. This RNA was trapped on a glass filter (Whatman GF/C and the like) upon filtration by suction. This filter was washed with a solution containing 1% trichloroacetic acid and 0.1% sodium pyrophosphate, washed with 90% ethanol and dried. A liquid scintillation cocktail (Packard) was added and the radioactivity of RNA synthesized by the enzyme reaction was measured on a liquid scintillation counter.
The HCV polymerase inhibitory activity (IC50) of the compound of the present invention was calculated from the values of radioactivity of the enzyme reaction with and without the test substance.
The results are shown in Table 18, wherein each symbol means that IC50 falls within the following range.
Reaction mixture: HCV polymerase (0.5 μg/ml) obtained in i), substrate RNA (5 μg/ml) obtained in ii), ATP (50 μM), GTP (50 μM), CTP (50 μM), UTP (2 μM), [5,6-^3H] UTP (46 Ci/mmol (Amersham), 1 μCi) 20 mM Tris-HCl (pH 7.5), EDTA (1 mM), MgCl2 (5 mM), NaCl (50 mM), DTT (1 mM), BSA (0.01%)

Where [3] appears, read: 25° C., 90 min, [5,6-3H]UTP incorporation, read-out: H544 1a 3X IC50.
Setting [4] is: read-out: H544 1a 3X IC50, 25° C., 90 min, [5,6-3H]UTP incorporation.

T2 sequence (P26663 2420-2963): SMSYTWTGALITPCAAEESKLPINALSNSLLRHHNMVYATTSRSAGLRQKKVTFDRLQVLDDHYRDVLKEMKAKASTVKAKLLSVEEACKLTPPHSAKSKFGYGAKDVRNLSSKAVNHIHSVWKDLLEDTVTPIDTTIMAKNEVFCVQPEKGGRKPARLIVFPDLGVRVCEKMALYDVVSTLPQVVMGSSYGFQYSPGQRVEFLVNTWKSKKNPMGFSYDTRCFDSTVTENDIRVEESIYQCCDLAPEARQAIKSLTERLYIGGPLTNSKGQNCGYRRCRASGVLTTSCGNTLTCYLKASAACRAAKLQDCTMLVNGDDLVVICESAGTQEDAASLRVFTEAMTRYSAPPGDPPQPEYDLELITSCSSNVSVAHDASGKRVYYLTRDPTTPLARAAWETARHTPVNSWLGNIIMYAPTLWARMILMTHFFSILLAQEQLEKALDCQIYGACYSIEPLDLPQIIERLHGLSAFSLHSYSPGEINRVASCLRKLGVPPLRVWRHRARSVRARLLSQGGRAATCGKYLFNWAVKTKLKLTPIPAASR

`CN(C)C(=O)Cn1c(-c2ccc(OCc3ccccc3)cc2)c(C2CCCCC2)c2sc(C(=O)O)cc21` [Example 14, 5-(4-benzyloxyphenyl)-6-cyclohexyl-4-dimethylcarbamoylmethyl-4H-thieno[3,2-b]pyrrole-2-carboxylic acid]: the IC50 in assay [1] (setting [3]) and in assay [2] was below 100 nM in each case.
With `O=C(O)c1cc2c(s1)c(C1CCCCC1)c(-c1ccc(OCc3ccccc3)cc1)n2CCN1CCN(C2CCCCC2)CC1` [Example 53, 5-(4-benzyloxyphenyl)-6-cyclohexyl-4-[2-(4-cyclohexylpiperazin-1-yl)ethyl]-4H-thieno[3,2-b]pyrrole-2-carboxylic acid dihydrochloride], the IC50 in assay [1] (setting [4]) and in assay [2] was 100 to 1000 nM throughout.
Consider `COc1ccc(-c2c(C3CCCCC3)c3sc(C(=O)O)cc3n2CC(=O)N(C)C)cc1` [Example 21, 6-cyclohexyl-4-dimethylcarbamoylmethyl-5-(4-methoxyphenyl)-4H-thieno[3,2-b]pyrrole-2-carboxylic acid], for which the IC50 in assay [1] (setting [3]) is 100 to 1000 nM; in assay [2] it was below 100 nM.
On to `Cn1c(-c2ccc(OCc3cc(NC(=O)CN4CCOCC4)ccc3N3CCOCC3)cc2)c(C2CCCCC2)c2sc(C(=O)O)cc21` [Example 41, 6-cyclohexyl-4-methyl-5-{4-[2-morpholino-5-(2-morpholinoacetylamino)benzyloxy]phenyl}-4H-thieno[3,2-b]pyrrole-2-carboxylic acid dihydrochloride], for which the IC50 in assay [1] (setting [4]) and in assay [2] was below 100 nM each time.
Turning to `CN(CC(=O)N1CCCCC1)C(=O)Cn1c(-c2ccc(OCc3ccccc3)cc2)c(C2CCCCC2)c2sc(C(=O)O)cc21` [Example 50, 5-(4-benzyloxyphenyl)-6-cyclohexyl-4-{[N-methyl-N-(2-oxo-2-piperidinoethyl)carbamoyl]methyl}-4H-thieno[3,2-b]pyrrole-2-carboxylic acid], the IC50 in assay [1] (setting [3]) and in assay [2] was below 100 nM in each case.
Take `Cn1c(-c2ccc(OCc3cc(N)ccc3N3CCN(S(C)(=O)=O)CC3)cc2)c(C2CCCCC2)c2sc(C(=O)O)cc21` [Example 19, 5-(4-[5-amino-2-(4-methanesulfonylpiperazin-1-yl)benzyloxy]phenyl)-6-cyclohexyl-4-methyl-4H-thieno[3,2-b]pyrrole-2-carboxylic acid hydrochloride]: the IC50 in assay [1] (setting [3]) and in assay [2] was below 100 nM in each case.
For `CN(C)C(=O)Cn1c(-c2ccccc2OCc2ccccc2)c(C2CCCCC2)c2sc(C(=O)O)cc21` [Example 36, 5-(2-benzyloxyphenyl)-6-cyclohexyl-4-dimethylcarbamoylmethyl-4H-thieno[3,2-b]pyrrole-2-carboxylic acid], the IC50 in assay [1] (setting [3]) and in assay [2] was 100 to 1000 nM throughout.
With `O=C(O)c1cc2c(s1)c(C1CCCCC1)c(-c1ccc(OCc3ccccc3)cc1)n2Cc1ccccc1` [Example 45, 4-benzyl-5-(4-benzyloxyphenyl)-6-cyclohexyl-4H-thieno[3,2-b]pyrrole-2-carboxylic acid], the IC50 in assay [1] (setting [3]) and in assay [2] was 100 to 1000 nM in each case.
For `CCN1CCN(C(=O)Cn2c(-c3ccc(OC)cc3)c(C3CCCCC3)c3sc(C(=O)O)cc32)CC1` [Example 26, 6-cyclohexyl-4-(4-ethylpiperazin-1-yl)carbonylmethyl-5-(4-methoxyphenyl)-4H-thieno[3,2-b]pyrrole-2-carboxylic acid], the IC50 in assay [1] (setting [3]) is 100 to 1000 nM; in assay [2], below 100 nM.
As to `CC(=O)N(C)c1ccc(N2CCOCC2)c(COc2ccc(-c3c(C4CCCCC4)c4sc(C(=O)O)cc4n3C)cc2)c1` [Example 17, 5-{4-[5-(N-acetyl-N-methylamino)-2-morpholinobenzyloxy]phenyl}-6-cyclohexyl-4-methyl-4H-thieno[3,2-b]pyrrole-2-carboxylic acid hydrochloride], the IC50 in assay [1] (setting [4]) and in assay [2] was below 100 nM each time.
Regarding `Cn1c(-c2ccc(OCc3ccccc3N3CCOCC3)cc2)c(C2CCCCC2)c2sc(C(=O)O)cc21` [Example 31, 6-cyclohexyl-4-methyl-5-[4-(2-morpholinobenzyloxy)phenyl]-4H-thieno[3,2-b]pyrrole-2-carboxylic acid hydrochloride], the IC50 in assay [1] (setting [3]) and in assay [2] was below 100 nM in each case.
`CC(=O)N(C)c1ccc(N2CCN(S(C)(=O)=O)CC2)c(COc2ccc(-c3c(C4CCCCC4)c4sc(C(=O)O)cc4n3C)cc2)c1` [Example 20, 5-{4-[5-(N-acetyl-N-methylamino)-2-(4-methanesulfonylpiperazin-1-yl)benzyloxy]phenyl}-6-cyclohexyl-4-methyl-4H-thieno[3,2-b]pyrrole-2-carboxylic acid hydrochloride]: the IC50 in assay [1] (setting [3]) and in assay [2] was below 100 nM in each case.
For the compound `CN(C)C(=O)Cn1c(-c2ccc(OC3CCN(C(=O)OC(C)(C)C)CC3)cc2)c(C2CCCCC2)c2sc(C(=O)O)cc21` [Example 39, 5-[4-(1-tert-butoxycarbonylpiperidin-4-yloxy)phenyl]-6-cyclohexyl-4-dimethylcarbamoylmethyl-4H-thieno[3,2-b]pyrrole-2-carboxylic acid], the values for the IC50 in assay [1] (setting [3]) and in assay [2] were 100 to 1000 nM and below 100 nM, respectively.
On the same counts, the results for `Cn1c(-c2ccccc2OCc2ccccc2)c(C2CCCCC2)c2sc(C(=O)O)cc21` [Example 35, 5-(2-benzyloxyphenyl)-6-cyclohexyl-4-methyl-4H-thieno[3,2-b]pyrrole-2-carboxylic acid] are 100 to 1000 nM and 100 to 1000 nM.
On to `CN(CCN1CCCCC1)CCn1c(-c2ccc(OCc3ccccc3)cc2)c(C2CCCCC2)c2sc(C(=O)O)cc21` [Example 59, 5-(4-benzyloxyphenyl)-6-cyclohexyl-4-{2-[N-methyl-N-(2-piperidinoethyl)amino]ethyl}-4H-thieno[3,2-b]pyrrole-2-carboxylic acid dihydrochloride], for which the values for the IC50 in assay [1] (setting [4]) and in assay [2] were 100 to 1000 nM and below 100 nM, respectively.
Turning to `COCCn1c(-c2ccc(OCc3ccccc3)cc2)c(C2CCCCC2)c2sc(C(=O)O)cc21` [Example 49, 5-(4-benzyloxyphenyl)-6-cyclohexyl-4-(2-methoxyethyl)-4H-thieno[3,2-b]pyrrole-2-carboxylic acid], the IC50 in assay [1] (setting [3]) and in assay [2] was 100 to 1000 nM in each case.
Regarding `CCOC(=O)c1cc2c(s1)c(C1CCCCC1)c(-c1ccc(OCc3cc(N4CCCC4=O)ccc3N3CCOCC3)cc1)n2C` [Example 24, ethyl 6-cyclohexyl-4-methyl-5-{4-[2-morpholino-5-(2-oxopyrrolidin-1-yl)benzyloxy]phenyl}-4H-thieno[3,2-b]pyrrole-2-carboxylate hydrochloride], the IC50 in assay [1] (setting [3]) and in assay [2] was 100 to 1000 nM throughout.
On to `CN(C)CC(=O)Nc1ccc(N2CCOCC2)c(COc2ccc(-c3c(C4CCCCC4)c4sc(C(=O)O)cc4n3C)cc2)c1` [Example 40, 6-cyclohexyl-5-{4-[5-(2-dimethylaminoacetylamino)-2-morpholinobenzyloxy]phenyl}-4-methyl-4H-thieno[3,2-b]pyrrole-2-carboxylic acid dihydrochloride], for which the IC50 in assay [1] (setting [4]) and in assay [2] was below 100 nM each time.
